The source made the active and inactive calls. The rule behind the calls is not given here.

The first assay concerns Mus musculus. Description: Pain relieving effect in mouse oxaliplatin-induced neuropathic pain model at 30 mg/kg, po measured at 30 mins by cold plate test. It is filed as functional, organism-based.
As for `NS(=O)(=O)c1ccc(C[Se]c2ccccc2)cc1`, the result was Active.

Another assay relates to Mus musculus. Briefly: Pain relieving effect in mouse oxaliplatin-induced neuropathic pain model at 100 mg/kg, po measured over 15 to 45 mins by cold plate test. It is filed as functional, organism-based.
`COCC[Se]c1ccc(S(N)(=O)=O)cc1`: the result was Active.

`NS(=O)(=O)c1ccc([Se]CCc2ccccc2)cc1`: the result was Active.

Another assay addresses Carbonic anhydrase 9 (Homo sapiens, UniProt Q16790). Description: Inhibition of human carbonic anhydrase 9 incubated for 15 mins prior to testing by stopped-flow CO2 hydration assay.
Broadly, the Ki is a dissociation constant, usually derived from enzyme kinetics or from competition with a known ligand. A higher Ki goes with a looser hold on the target. In turn, `NS(=O)(=O)c1ccc(C[Se]c2ccc(NC(=O)Nc3ccc(F)cc3)cc2)cc1` yielded a Ki of 1070 nM.

`NS(=O)(=O)c1ccc(C[Se]c2ccc(NC(=S)Nc3ccc(-c4c5ccc(=O)cc-5oc5cc(O)ccc45)c(C(=O)O)c3)cc2)cc1` came in with a Ki of 697 nM.

In turn, `N#C[Se]Cc1ccc(S(N)(=O)=O)cc1` came in with a Ki of 4 nM.

`CN(C)c1ccc([Se]Cc2ccc(S(N)(=O)=O)cc2)cc1` gave a Ki of 450 nM.

Consider `COc1ccc(C(=O)Nc2ccc([Se]Cc3ccc(S(N)(=O)=O)cc3)cc2)c(OC)c1`, for which the inhibition constant Ki was determined as 845 nM.

As for `NS(=O)(=O)c1ccc([Se]CC2CC2)cc1`, the Ki was found to be 46.4 nM.

Regarding `NS(=O)(=O)c1ccc([Se]Cc2ccccc2)cc1`, the Ki was determined as 549 nM.

Regarding `Cc1cc(C)cc(NC(=O)Nc2ccc([Se]Cc3ccc(S(N)(=O)=O)cc3)cc2)c1`, the affinity, expressed as Ki, was 1140 nM.

In turn, `NS(=O)(=O)c1ccc(C[Se]c2ccc3ccccc3c2)cc1` showed a Ki of 337 nM.

Compound `Nc1ccc([Se]Cc2ccc(S(N)(=O)=O)cc2)cc1` gave a Ki of 286 nM.

As for `NS(=O)(=O)c1ccc(C[Se]c2ccc(NC(=O)/C=C/c3ccccc3)cc2)cc1`, affinity was put at a Ki of 1010 nM.

In turn, `CC(=O)Oc1ccccc1C(=O)Nc1ccc([Se]Cc2ccc(S(N)(=O)=O)cc2)cc1` gave a Ki of 710 nM.

For the origin of these results see ChEMBL document CHEMBL4152274, “Design, synthesis and X-ray crystallography of selenides bearing benzenesulfonamide moiety with neuropathic pain modulating effects” (Eur J Med Chem, 2018).
